Assays:
Format in all cases: functional
COLO 205 = test: Growth inhibition of human COLO205 cells assessed as cell growth incubated for 48 hrs by sulforhodamine B assay; design: concentration or dose not given beside the values
CCRF-CEM = test: Growth inhibition of human CCRF-CEM cells assessed as cell growth incubated for 48 hrs by sulforhodamine B assay; design: concentration or dose not given beside the values
NCI/ADR-RES = test: Growth inhibition of human NCI/ADR-RES cells assessed as cell growth incubated for 48 hrs by sulforhodamine B assay; design: concentration or dose not given beside the values
OVCAR-5 = test: Growth inhibition of human OVCAR5 cells assessed as cell growth incubated for 48 hrs by sulforhodamine B assay; design: scale not given: the % may be the effect or the level left
NCI-H23 = test: Growth inhibition of human NCI-H23 cells assessed as cell growth incubated for 48 hrs by sulforhodamine B assay; design: concentration or dose not given beside the values
SF-268 = test: Growth inhibition of human SF268 cells assessed as cell growth incubated for 48 hrs by sulforhodamine B assay; design: concentration or dose not given beside the values
RXF 393 = test: Growth inhibition of human RXF393 cells assessed as cell growth incubated for 48 hrs by sulforhodamine B assay; design: concentration or dose not given beside the values
SK-MEL-28 = test: Growth inhibition of human SK-MEL-28 cells assessed as cell growth incubated for 48 hrs by sulforhodamine B assay; design: concentration or dose not given beside the values
OVCAR-4 = test: Growth inhibition of human OVCAR4 cells assessed as cell growth incubated for 48 hrs by sulforhodamine B assay; design: concentration or dose not given beside the values
TK-10 = test: Growth inhibition of human TK10 cells assessed as cell growth incubated for 48 hrs by sulforhodamine B assay; design: concentration or dose not given beside the values
HCC 2998 = test: Growth inhibition of human HCC2998 cells assessed as cell growth incubated for 48 hrs by sulforhodamine B assay; design: concentration or dose not given beside the values
T47D = test: Growth inhibition of human T47D cells assessed as cell growth incubated for 48 hrs by sulforhodamine B assay; design: concentration or dose not given beside the values
U-251 = test: Growth inhibition of human U251 cells assessed as cell growth incubated for 48 hrs by sulforhodamine B assay; design: concentration or dose not given beside the values
SNB-19 = test: Growth inhibition of human SNB19 cells assessed as cell growth incubated for 48 hrs by sulforhodamine B assay; design: concentration or dose not given beside the values
Hs-578T = test: Growth inhibition of human Hs 578T cells assessed as cell growth incubated for 48 hrs by sulforhodamine B assay; design: concentration or dose not given beside the values
SK-MEL-2 = test: Growth inhibition of human SK-MEL-2 cells assessed as cell growth incubated for 48 hrs by sulforhodamine B assay; design: concentration or dose not given beside the values
MDA-MB-435 = test: Growth inhibition of human MDA-MB-435 cells assessed as cell growth incubated for 48 hrs by sulforhodamine B assay; design: concentration or dose not given beside the values
HT-29 = test: Growth inhibition of human HT-29 cells assessed as cell growth incubated for 48 hrs by sulforhodamine B assay; design: concentration or dose not given beside the values
SN12C = test: Growth inhibition of human SN12C cells assessed as cell growth incubated for 48 hrs by sulforhodamine B assay; design: concentration or dose not given beside the values
SNB-75 = test: Growth inhibition of human SNB75 cells assessed as cell growth incubated for 48 hrs by sulforhodamine B assay; design: concentration or dose not given beside the values
MOLT-4 = test: Growth inhibition of human MOLT4 cells assessed as cell growth incubated for 48 hrs by sulforhodamine B assay; design: concentration or dose not given beside the values
SK-MEL-5 = test: Growth inhibition of human SK-MEL-5 cells assessed as cell growth incubated for 48 hrs by sulforhodamine B assay; design: concentration or dose not given beside the values
SW-620 = test: Growth inhibition of human SW620 cells assessed as cell growth incubated for 48 hrs by sulforhodamine B assay; design: concentration or dose not given beside the values
786-0 = test: Growth inhibition of human 786-0 cells assessed as cell growth incubated for 48 hrs by sulforhodamine B assay; design: concentration or dose not given beside the values
HOP-92 = test: Growth inhibition of human HOP92 cells assessed as cell growth incubated for 48 hrs by sulforhodamine B assay; design: concentration or dose not given beside the values
SF-295 = test: Growth inhibition of human SF295 cells assessed as cell growth incubated for 48 hrs by sulforhodamine B assay; design: concentration or dose not given beside the values
PC-3 = test: Growth inhibition of human PC3 cells assessed as cell growth incubated for 48 hrs by sulforhodamine B assay; design: concentration or dose not given beside the values
NCI-H226 = test: Growth inhibition of human NCI-H226 cells assessed as cell growth incubated for 48 hrs by sulforhodamine B assay; design: concentration or dose not given beside the values
K562 = test: Growth inhibition of human K562 cells assessed as cell growth incubated for 48 hrs by sulforhodamine B assay; design: concentration or dose not given beside the values
UO-31 = test: Growth inhibition of human UO31 cells assessed as cell growth incubated for 48 hrs by sulforhodamine B assay; design: concentration or dose not given beside the values
SK-OV-3 = test: Growth inhibition of human SKOV3 cells assessed as cell growth incubated for 48 hrs by sulforhodamine B assay; design: concentration or dose not given beside the values
SF-539 = test: Growth inhibition of human SF539 cells assessed as cell growth incubated for 48 hrs by sulforhodamine B assay; design: scale not given: the % may be the effect or the level left
NCI-H522 = test: Growth inhibition of human NCI-H522 cells assessed as cell growth incubated for 48 hrs by sulforhodamine B assay; design: concentration or dose not given beside the values
KM12 = test: Growth inhibition of human KM12 cells assessed as cell growth incubated for 48 hrs by sulforhodamine B assay; design: concentration or dose not given beside the values
OVCAR-3 = test: Growth inhibition of human OVCAR3 cells assessed as cell growth incubated for 48 hrs by sulforhodamine B assay; design: concentration or dose not given beside the values
OVCAR-8 = test: Growth inhibition of human OVCAR8 cells assessed as cell growth incubated for 48 hrs by sulforhodamine B assay; design: concentration or dose not given beside the values
DU-145 = test: Growth inhibition of human DU145 cells assessed as cell growth incubated for 48 hrs by sulforhodamine B assay; design: concentration or dose not given beside the values
HCT-116 = test: Growth inhibition of human HCT116 cells assessed as cell growth incubated for 48 hrs by sulforhodamine B assay; design: concentration or dose not given beside the values
UACC-257 = test: Growth inhibition of human UACC257 cells assessed as cell growth incubated for 48 hrs by sulforhodamine B assay; design: concentration or dose not given beside the values
BT-549 = test: Growth inhibition of human BT549 cells assessed as cell growth incubated for 48 hrs by sulforhodamine B assay; design: concentration or dose not given beside the values
SR = test: Growth inhibition of human SR cells assessed as cell growth incubated for 48 hrs by sulforhodamine B assay; design: concentration or dose not given beside the values
CAKI-1 = test: Growth inhibition of human Caki1 cells assessed as cell growth incubated for 48 hrs by sulforhodamine B assay; design: concentration or dose not given beside the values
MDA-MB-468 = test: Growth inhibition of human MDA-MB-468 cells assessed as cell growth incubated for 48 hrs by sulforhodamine B assay; design: concentration or dose not given beside the values
A498 = test: Growth inhibition of human A498 cells assessed as cell growth incubated for 48 hrs by sulforhodamine B assay; design: concentration or dose not given beside the values
NCI-H322M = test: Growth inhibition of human NCI-H322M cells assessed as cell growth incubated for 48 hrs by sulforhodamine B assay; design: scale not given: the % may be the effect or the level left
UACC-62 = test: Growth inhibition of human UACC62 cells assessed as cell growth incubated for 48 hrs by sulforhodamine B assay; design: concentration or dose not given beside the values
MDA-MB-231 = test: Growth inhibition of human MDA-MB-231 cells assessed as cell growth incubated for 48 hrs by sulforhodamine B assay; design: concentration or dose not given beside the values
ACHN = test: Growth inhibition of human ACHN cells assessed as cell growth incubated for 48 hrs by sulforhodamine B assay; design: scale not given: the % may be the effect or the level left
HCT-15 = test: Growth inhibition of human HCT15 cells assessed as cell growth incubated for 48 hrs by sulforhodamine B assay; design: scale not given: the % may be the effect or the level left
IGROV-1 = test: Growth inhibition of human IGROV1 cells assessed as cell growth incubated for 48 hrs by sulforhodamine B assay; design: scale not given: the % may be the effect or the level left
HL-60(TB) = test: Growth inhibition of human HL-60(TB) cells assessed as cell growth incubated for 48 hrs by sulforhodamine B assay; design: concentration or dose not given beside the values
A549 = test: Growth inhibition of human A549/ATCC cells assessed as cell growth incubated for 48 hrs by sulforhodamine B assay; design: concentration or dose not given beside the values
LOX IMVI = test: Growth inhibition of human LOXIMVI cells assessed as cell growth incubated for 48 hrs by sulforhodamine B assay; design: concentration or dose not given beside the values
MCF7 = test: Growth inhibition of human MCF7 cells assessed as cell growth incubated for 48 hrs by sulforhodamine B assay; design: concentration or dose not given beside the values
HOP-62 = test: Growth inhibition of human HOP62 cells assessed as cell growth incubated for 48 hrs by sulforhodamine B assay; design: concentration or dose not given beside the values
Malme-3M = test: Growth inhibition of human MALME-3M cells assessed as cell growth incubated for 48 hrs by sulforhodamine B assay; design: scale not given: the % may be the effect or the level left
RPMI-8226 = test: Growth inhibition of human RPMI8226 cells assessed as cell growth incubated for 48 hrs by sulforhodamine B assay; design: concentration or dose not given beside the values
M14 = test: Growth inhibition of human M14 cells assessed as cell growth incubated for 48 hrs by sulforhodamine B assay; design: concentration or dose not given beside the values
NCI-H460 = test: Growth inhibition of human NCI-H460 cells assessed as cell growth incubated for 48 hrs by sulforhodamine B assay; design: concentration or dose not given beside the values

Q: Which results are given for `O=C([O-])CCc1ccc2c(=O)c3sc4c(=O)c5ccccc5c(=O)c4c3c(=O)c2c1.[Na+]`?
A: Activity (COLO 205): -95.3%; Activity (CCRF-CEM): -11.89%; Activity (NCI/ADR-RES): -16.65%; Activity (OVCAR-5): -91.27%; Activity (NCI-H23): -48.38%; Activity (SF-268): -4.66%; Activity (RXF 393): -40.51%; Activity (SK-MEL-28): -86.88%; Activity (OVCAR-4): 3.01%; Activity (TK-10): -13.65%; Activity (HCC 2998): -78.44%; Activity (T47D): 30.96%; Activity (U-251): -19.72%; Activity (SNB-19): -46.21%; Activity (Hs-578T): -2.26%; Activity (SK-MEL-2): -61.62%; Activity (MDA-MB-435): -79.57%; Activity (HT-29): -35.38%; Activity (SN12C): -86.04%; Activity (SNB-75): -92.01%; Activity (MOLT-4): -18.02%; Activity (SK-MEL-5): -98.11%; Activity (SW-620): -35.47%; Activity (786-0): -36.85%; Activity (HOP-92): 21.71%; Activity (SF-295): -92.24%; Activity (PC-3): 4.12%; Activity (NCI-H226): -50.22%; Activity (K562): 1.66%; Activity (UO-31): -62.16%; Activity (SK-OV-3): -20.08%; Activity (SF-539): -99.93%; Activity (NCI-H522): -56.08%; Activity (KM12): -4.86%; Activity (OVCAR-3): -20.41%; Activity (OVCAR-8): -11.99%; Activity (DU-145): -94.06%; Activity (HCT-116): -11.85%; Activity (UACC-257): -93.7%; Activity (BT-549): -93.17%; Activity (SR): -13.25%; Activity (CAKI-1): -11.28%; Activity (MDA-MB-468): -23.55%; Activity (A498): -94.19%; Activity (NCI-H322M): -96.32%; Activity (UACC-62): -86.72%; Activity (MDA-MB-231): 7.51%; Activity (ACHN): 3.07%; Activity (HCT-15): -51.47%; Activity (IGROV-1): -45.75%; Activity (HL-60(TB)): -1.51%; Activity (A549): -52.48%; Activity (LOX IMVI): -79.48%; Activity (MCF7): -42.17%; Activity (HOP-62): -94.95%; Activity (Malme-3M): -95.72%; Activity (RPMI-8226): -23.33%; Activity (M14): -92.46%; Activity (NCI-H460): -47.6%

— ChEMBL document CHEMBL4420075, “Seriniquinones, melanoma-specific anticancer agents” (2016)
